Our source for the EC50 values is patent US8030354B2, “Substituted biphenyl GPR40 modulators” (Amgen Inc., priority 2007, dated 2011).

Bounds are passed on as bounds.

In assay [1] the target is T1, GPR40 (Homo sapiens, UniProt O14842). Kind of assay: Cell-based aequorin assay (CHO cells stably expressing GPR40 and aequorin). The conditions noted are these: activation of human GPR40, CHO cells, 0.01% HSA. Also on record: expressed in transfected cells; host or cells: CHO cells stably transfected with GPR40 and aequorin. The method, boiled down:
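CHO cells stably co-expressing GPR40 and aequorin, loaded with coelenterazine (1 ug/mL, 2 h, room temperature) in H/HBSS with 20 mM Hepes and 0.01% fatty acid-free HSA. Serially diluted compounds added; luminescence recorded over 20 s. EC50 from dose-response of maximum relative light units.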

The target of assay [2] is T1, GPR40. Kind of assay: Inositol phosphate accumulation assay (A9_GPR40 cells). The assay is classed as cell-based. Details: expressed in transfected cells; host or cells: CHO cells stably transfected with GPR40 and aequorin. The following applies: inositol phosphate assay, A9_GPR40 cells, 1 hour; read-out: IP3 EC50. In short, it runs like this:
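[^3H] inositol phosphate accumulation was measured by SPA after 1 h compound exposure at 37° C in HBSS/10 mM LiCl containing HSA, ending with a 20 mM formic acid quench. The GPR40-transfected A9 cells had first been labelled overnight (16 h) with 1 μCi/mL ^3H-inositol.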

In general, EC50 refers to the concentration needed to bring the measured effect to its halfway point.

T1 sequence (O14842 whole entry): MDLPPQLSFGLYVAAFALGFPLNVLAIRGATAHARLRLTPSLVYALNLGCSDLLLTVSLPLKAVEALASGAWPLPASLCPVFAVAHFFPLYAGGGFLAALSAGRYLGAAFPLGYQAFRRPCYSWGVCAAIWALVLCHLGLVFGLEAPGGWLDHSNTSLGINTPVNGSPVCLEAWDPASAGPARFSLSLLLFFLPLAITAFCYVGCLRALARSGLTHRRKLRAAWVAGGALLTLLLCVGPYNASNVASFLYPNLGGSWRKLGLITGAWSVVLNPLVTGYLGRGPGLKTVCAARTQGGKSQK

For the molecule `COc1ccc(F)c(-c2ccc(COc3cccc(C(CC(=O)O)C4CCC4)c3)cc2C2CCCCCC2)c1` (single isomer, unassigned) [Example 79.7, (3S)-3-(3-(((2-Cycloheptyl-2′-fluoro-5′-(methyloxy)-1,1′-biphenyl-4-yl)methyl)oxy)phenyl)-3-cyclobutylpropanoic acid or (3R)-3-(3-(((2-cycloheptyl-2′-fluoro-5′-(methyloxy)-1,1′-biphenyl-4-yl)methyl)oxy)phenyl)-3-cyclobutylpropanoic acid], the EC50 was in the range of 100 to 1000 nM at GPR40 [1] and 10 to 100 nM at GPR40 [2].
The corresponding values for `COc1ccc(F)c(-c2ccc(COc3cccc([C@@H](CC(=O)O)CC4CC4)c3)cc2[C@H]2OCCC2(C)C)c1` (single isomer, unassigned) [Example 69.44] are 100 to 1000 nM and 10 to 100 nM.
Taken in the same sequence, the figures for `COc1ccc(F)c(-c2ccc(COc3cccc(C(CC(=O)O)C4CC4)c3F)cc2C2CCCC2(C)C)c1` (single isomer, unassigned) [Example 99.2] were 100 to 1000 nM and 10 to 100 nM.
Taken in the same sequence, the figures for `COc1ccc(F)c(-c2cc(F)c(COc3cccc(C(CC(=O)O)C4CC4)c3F)cc2C2=CCCC2(C)C)c1` (single isomer, unassigned) [Example 83.16, (3S)-3-Cyclopropyl-3-(3-(((2-(5,5-dimethyl-1-cyclopenten-1-yl)-2′,5-difluoro-5′-(methyloxy)-1,1′-biphenyl-4-yl)methyl)oxy)-2-fluorophenyl)propanoic acid or (3R)-3-cyclopropyl-3-(3-(((2-(5,5-dimethyl-1-cyclopenten-1-yl)-2′,5-difluoro-5′-(methyloxy)-1,1′-biphenyl-4-yl)methyl)oxy)-2-fluorophenyl)propanoic acid] were 100 to 1000 nM and 10 to 100 nM.
Turning to `COc1cc(-c2ccc(COc3cccc(C(CC(=O)O)C4CC4)c3)cc2C2CCCC2(C)C)c(F)cn1` (single isomer, unassigned) [Example 66.36], the EC50 on GPR40 [1] was 10 to 100 nM; at GPR40 [2] it was < 10 nM.
The corresponding values for `COc1ccc(F)c(-c2ccc(COc3cccc([C@H](C)CC(=O)O)c3)cc2OC(F)(F)F)c1` (single isomer, unassigned) [Example 46, (3R)-3-(3-(((2′-Fluoro-5′-(methyloxy)-2-((trifluoromethyl)oxy)-1,1′-biphenyl-4-yl)methyl)oxy)phenyl)butanoic acid or (3S)-3-(3-(((2′-fluoro-5′-(methyloxy)-2-((trifluoromethyl)oxy)-1,1′-biphenyl-4-yl)methyl)oxy)phenyl)butanoic acid] are 100 to 1000 nM and 1000 to 10000 nM.
For the molecule `CCCC(CC(=O)O)c1cccc(OCc2ccc(-c3cc(OC)ccc3F)c(C3=CCCCCC3)c2)c1` (single isomer, unassigned) [Example 67.6, (3R)-3-(3-(((2-(1-Cyclohepten-1-yl)-2′-fluoro-5′-(methyloxy)-1,1′-biphenyl-4-yl)methyl)oxy)phenyl)hexanoic acid or (3S)-3-(3-(((2-(1-cyclohepten-1-yl)-2′-fluoro-5′-(methyloxy)-1,1′-biphenyl-4-yl)methyl)oxy)phenyl)hexanoic acid], the concentration giving a half-maximal response (EC50) at GPR40 [1] is 100 to 1000 nM; on GPR40 [2] it was 10 to 100 nM.
Taken in the same sequence, the figures for `COc1ccc(F)c(-c2ccc(COc3cccc(C(CC(=O)O)CC4CC4)c3)cc2C2CCCCC2(C)C)c1` (single isomer, unassigned) [Example 69.36] were 100 to 1000 nM and < 10 nM.
For `C=C(C)[C@H](CC(=O)O)c1cccc(OCc2ccc(-c3cccc(OC)c3)c(C(C)(C)C)c2)c1` (single isomer, unassigned) [Example 56, (3S)-3-(3-(((2-(1,1-Dimethylethyl)-3′-(methyloxy)-1,1′-biphenyl-4-yl)methyl)oxy)phenyl)-4-methyl-4-pentenoic acid or (3R)-3-(3-(((2-(1,1-dimethylethyl)-3′-(methyloxy)-1,1′-biphenyl-4-yl)methyl)oxy)phenyl)-4-methyl-4-pentenoic acid], the 50% effective concentration (EC50) on GPR40 [1] and at GPR40 [2] was 100 to 1000 nM in each case.
Take `CC1(C)CCC=C1c1cc(COc2cccc([C@@H](CC(=O)O)C3CC3)c2F)ccc1-c1cc(C(F)F)ccc1F` (single isomer, unassigned) [Example 83.12, (3S)-3-Cyclopropyl-3-(3-(((5′-(difluoromethyl)-2-(5,5-dimethyl-1-cyclopenten-1-yl)-2′-fluoro-1,1′-biphenyl-4-yl)methyl)oxy)-2-fluorophenyl)propanoic acid or (3R)-3-cyclopropyl-3-(3-(((5′-(difluoromethyl)-2-(5,5-dimethyl-1-cyclopenten-1-yl)-2′-fluoro-1,1′-biphenyl-4-yl)methyl)oxy)-2-fluorophenyl)propanoic acid]: the half-maximal effective concentration (EC50) is 100 to 1000 nM on GPR40 [1] and 10 to 100 nM on GPR40 [2].
Taken in the same sequence, the figures for `C=CC1(c2cc(COc3cccc([C@@H](CC(=O)O)C4CC4)c3)ccc2-c2cc(OC)ncc2F)CCCC1` (single isomer, unassigned) [Example 66.67, (3S)-3-(3-(4-(5-Fluoro-2-methoxypyridin-4-yl)-3-(1-vinylcyclopentyl)benzyloxy)phenyl)-3-cyclopropylpropanoic acid or (3R)-3-(3-(4-(5-fluoro-2-methoxypyridin-4-yl)-3-(1-vinylcyclopentyl)benzyloxy)phenyl)-3-cyclopropylpropanoic acid] were 100 to 1000 nM and 10 to 100 nM.
On to `COc1ccc(F)c(-c2ccc(COc3cccc(C(C)CC(=O)O)c3)cc2C2CCCCCC2)c1` (single isomer, unassigned) [Example 64.17, (3R)-3-(3-(((2-Cycloheptyl-2′-fluoro-5′-(methyloxy)-1,1′-biphenyl-4-yl)methyl)oxy)phenyl)butanoic acid or (3S)-3-(3-(((2-cycloheptyl-2′-fluoro-5′-(methyloxy)-1,1′-biphenyl-4-yl)methyl)oxy)phenyl)butanoic acid], for which the EC50 on GPR40 [1] was 100 to 1000 nM; on GPR40 [2] it was 10 to 100 nM.
Taken in the same sequence, the figures for `COc1cccc(-c2ccc(COc3cccc([C@H](C)CC(=O)O)c3)cc2C(C)(C)C)c1` (single isomer, unassigned) [Example 47, (3R)-3-(3-(((2-(1,1-Dimethylethyl)-3′-(methyloxy)-1,1′-biphenyl-4-yl)methyl)oxy)phenyl)butanoic acid or (3S)-3-(3-(((2-(1,1-dimethylethyl)-3′-(methyloxy)-1,1′-biphenyl-4-yl)methyl)oxy)phenyl)butanoic acid] were 100 to 1000 nM and 100 to 1000 nM.
Taken in the same sequence, the figures for `CC1(C)CCC[C@@H]1c1cc(COc2cccc([C@@H](CC(=O)O)C3CC3)c2F)ccc1-c1cc(C(F)F)ccc1F` (single isomer, unassigned) [Example 83.3] were 100 to 1000 nM and 10 to 100 nM.
Taken in the same sequence, the figures for `COc1ccc(F)c(-c2ccc(COc3cccc(C(C)(C)CC(=O)O)c3)cc2C(C)(C)C)c1` [Example 85.1, 3-[3-(2-tert-Butyl-2′-fluoro-5′-methoxy-biphenyl-4-ylmethoxy)-phenyl]-3-methyl-butyric acid] were 100 to 1000 nM and 100 to 1000 nM.
Take `C=CC[C@H](CC(=O)O)c1cccc(OCc2ccc(-c3cccc(OC)c3)c(C(C)(C)C)c2)c1` (single isomer, unassigned) [Example 57, (3R)-3-(3-(((2-(1,1-dimethylethyl)-3′-(methyloxy)-1,1′-biphenyl-4-yl)methyl)oxy)phenyl)-5-hexenoic acid or (3S)-3-(3-(((2-(1,1-dimethylethyl)-3′-(methyloxy)-1,1′-biphenyl-4-yl)methyl)oxy)phenyl)-5-hexenoic acid]: the EC50 on GPR40 [1] and on GPR40 [2] was 100 to 1000 nM in each case.
Take `COc1ccc(F)c(-c2ccc(COc3cccc(C(CC(=O)O)C4CC4)c3F)cc2C(F)C(C)(C)C)c1` (single isomer, unassigned) [Example 83.9]: the EC50 at GPR40 [1] was 100 to 1000 nM; at GPR40 [2], < 10 nM.
The corresponding values for `COc1ccc(F)c(-c2ccc(COc3cccc([C@@H](CC(=O)O)CC4CC4)c3)cc2C(F)C(C)(C)C)c1` (single isomer, unassigned) [Example 69.17, (3R)-4-cyclopropyl-3-(3-(((2′-fluoro-2-(1-fluoro-2,2-dimethylpropyl)-5′-(methyloxy)-1,1′-biphenyl-4-yl)methyl)oxy)phenyl)butanoic acid or (3S)-4-cyclopropyl-3-(3-(((2′-fluoro-2-(1-fluoro-2,2-dimethylpropyl)-5′-(methyloxy)-1,1′-biphenyl-4-yl)methyl)oxy)phenyl)butanoic acid] are 100 to 1000 nM and < 10 nM.
Taken in the same sequence, the figures for `CC[C@H](CC(=O)O)c1cccc(OCc2ccc(-c3cc(OC)ccc3F)c(C3CCCCCC3)c2)c1` (single isomer, unassigned) [Example 78.7, (3R)-3-(3-(((2-Cycloheptyl-2′-fluoro-5′-(methyloxy)-1,1′-biphenyl-4-yl)methyl)oxy)phenyl)pentanoic acid or (3S)-3-(3-(((2-cycloheptyl-2′-fluoro-5′-(methyloxy)-1,1′-biphenyl-4-yl)methyl)oxy)phenyl)pentanoic acid] were 100 to 1000 nM and 10 to 100 nM.
